Data from patent US10662169B2, “Catechol derivative and pharmaceutical composition comprising the same” (AUTOPHAGYSCIENCES INC., priority 2015, dated 2020).

Tests used:
[1] = tested on: acute liver injury induced by carbon tetrachloride; assay: Model of acute liver injury induced by carbon tetrachloride; format: in vivo, C57BL/6 mice; conditions: 50 mg/kg orally three times every 12 hours, then CCl4 5 mL/kg i.p.; autopsy 24 hours later; FIG. 4
Protocol: Attempts were made to confirm the inhibitory effect of autophagy activator on liver injury in an animal model of induced liver fibrosis due to acute liver injury. In order to confirm the effect of inhibiting acute liver injury, carbon tetrachloride (CCl4) was administered to C57BL/6 mice to induce acute liver injury, and then the compound according to the present invention was administered. It was then confirmed whether liver injuries were inhibited. Five-week-old female C57BL/6 mice were introduced and acclimated for one week, and then divided into six groups respectively; a normal control group, a group to which carbon tetrachloride was administered, and groups to which the compounds according to the present invention (Examples 1, 2, 5, and 7) were administered. Each of the compounds according to the present invention was dissolved in corn oil and administered orally three times at a dose of 50 mg/kg (body weight) every 12 hours. 30 Minutes after final oral administration, carbon tetrachloride was intraperitoneally administered at a dose of 5 mL/kg (body weight) and then autopsied 24 hours later top remove a sample of liver tissue under autopsy and fix it, thereby preparing a tissue specimen. After preparation of tissue specimen slides, H & E staining was performed and liver injuries were confirmed with a microscope.

[2] = tested on: LC3-II in primary hepatocytes; assay: Autophagy activation: LC3-II Western immunoblotting in primary hepatocytes, ischemia-reperfusion model; format: cell-based, C57BL/6 mice; conditions: FIG. 1, FIG. 2
Protocol: Primary hepatocyte was isolated from male C57BL/6 mice by a collagenase perfusion method which is a known method (Gastroenterology 2011, 141, 2188). Survival rate of the isolated cells was measured by trypan blue exclusion method. Autophagy was induced by ischemia-reperfusion method (Gastroenterology 2011, 141, 2188).
Specifically, in order to induce ischemia, hepatocytes were incubated at 37° C. in Krebs-Ringer-HEPES (KRH0) buffer (pH 6.2) in an anaerobic chamber for 2 hours. The respective hepatocytes were treated with DMSO, the compound prepared in Examples described above, or Rapamycin as a control substance, and then KRH buffer solution at pH 7.4 was treated under aerobic conditions for 1 hour to induce reperfusion. […] The amount of protein was measured with bovine serum albumin as a protein standard using Bio-Rad Protein Assay Kit (Cat No. 500-0002). […] Then, bands were measured using ECL (Enhanced Chemiluminescence, Thermo Scientific, Cat No. 34080). […]
The amount of LC3-II increased by the compound treatment was quantified by measuring the band density, and then compared with the amount of LC3-II increased by the treatment of Rapamycin used as a control substance, and the comparison values are shown in Table 1.

[3] = tested on: liver fibrosis induced by carbon tetrachloride; assay: Model of liver fibrosis induced by carbon tetrachloride (chronic); format: in vivo, C57BL/6 mice; conditions: for liver fibrosis, Masson's Trichrome staining: CCl4 0.8 ml/kg i.p., FIG. 10
Protocol: In order to confirm the effect of inhibiting liver fibrosis caused by chronic liver injury, carbon tetrachloride was administered to C57BL/6 mice to induce chronic liver injury, thereby inducing liver fibrosis, and then the compounds according to the present invention were administered. It was then confirmed whether chronic liver injuries were inhibited. Five-week-old female C57BL/6 mice were introduced and acclimated for one week, and then divided into six groups respectively; a normal control group, a group to which carbon tetrachloride was administered, and groups to which the compounds according to the present invention (Examples 1 and 5) were administered. Carbon tetrachloride was dissolved in corn oil and administered intraperitoneally at a dose of 0.8 ml/kg (body weight) twice a day, for a total of 8 days. Twenty-four hours after the final oral administration, an autopsy was performed to remove a sample of liver tissue and fix it, thus preparing a tissue specimen. After preparation of tissue specimen slides, H & E staining was performed, and liver tissue injury as well as inflammatory cell infiltration in liver tissue were confirmed by microscopy. In addition, Masson's Trichrome staining was performed, and collagen deposition in the liver tissue was confirmed by microscope.

[4] = tested on: liver fibrosis induced by bile duct ligation; assay: Model of liver fibrosis induced by bile duct ligation (BDL); format: in vivo, Sprague Dawley (SD) rats; conditions: BDL rats; 12.5, 25 and 50 mg/kg orally once a day for 14 days; FIG. 13
Protocol: In order to confirm the effect of inhibiting liver fibrosis caused by chronic liver injury, bile duct ligation (BDL) was performed in Sprague Dawley (SD) rats to induce chronic liver injury, thereby inducing liver fibrosis, and then the compounds according to the present invention were administered. It was then confirmed whether chronic liver injuries were inhibited.
Seven-week-old female SD rats were introduced and acclimated for one week, and then divided into five groups respectively; a control group, a bile duct ligation surgery group, and groups to which the compound according to the present invention (Example 15) was administered at three doses (12.5, 25 and 50 mg/kg body weight). In the control group, the bile duct was not exposed or ligated after laparotomy, and the other groups performed bile duct ligation surgery. One week after bile duct ligation, the compound according to the present invention (Example 1) was dissolved in corn oil and administered orally for each dose once a day for a total of 14 days. […] In addition, a part of the removed liver (10 mg) was decomposed to perform a quantitative experiment of hydroxyproline which is a major component of collagen, and the amount of collagen deposited was quantified, thereby confirming the effects of the compound according to the present invention.

[5] = tested on: mTOR; assay: mTOR enzyme activity: p-mTOR (Ser 2448) Western immunoblotting in hepatocyte ischemia-reperfusion model; format: cell-based, C57BL/6 mice; conditions: hepatocytes, FIG. 3
Protocol: Western immunoblotting was performed using the cell-disrupted liquid obtained in Experimental Example 1. The PVDF membrane obtained from electrophoresis and electroblotting was placed in a TBS-tween solution containing an antibody against mTOR or p-mTOR (Ser 2448) proteins (Cell Signaling), allowed to stand at 4° C. for 12 hours, and then labeled with a secondary antibody labeled with HRP (Horseradish Peroxidase, Sigma Co., Cat No. P0889). Then, bands were measured using ECL (Enhanced Chemiluminescence, Thermo Scientific, Cat No. 34080).
The measurement results are shown in FIG. 3. mTOR is known to be one of the major proteins regulating autophagy. mTOR serves to inhibit autophagy at a quiescent state, whereas phosphorylation at serine 2448-position inhibits the function of mTOR, resulting in activation of autophagy.

[6] = tested on: liver fibrosis induced by thioacetamide; assay: Model of liver fibrosis induced by thioacetamide (TAA); format: in vivo, C57BL/6 mice; conditions: TAA 200 mg/kg i.p. three times a week for 6 weeks; compound 50 mg/kg orally once a day for 8 days; FIG. 7
Protocol: In order to confirm the effect of inhibiting liver fibrosis caused by chronic liver injury, thioacetamide (TAA) was administered to C57BL/6 mice to induce chronic liver injury, thereby inducing liver fibrosis, and then the compounds according to the present invention were administered. It was then confirmed whether chronic liver injuries were inhibited. Five-week-old female C57BL/6 mice were introduced and acclimated for one week, and then divided into six groups respectively; a normal control group, a group to which thioacetamide was administered, and groups to which the compounds according to the present invention (Examples 2, 5 and 7) were administered. Thioacetamide was dissolved in phosphate-buffered physiological saline and administered intraperitoneally at a dose of 200 mg/kg (body weight) three times a week, for a total of 6 weeks. Three compounds according to the present invention was dissolved in corn oil […] and administered orally at a dose of 50 mg/kg (body weight) once a day for a total of 8 days. Twenty-four hours after the final oral administration, an autopsy was performed to remove a sample of liver tissue and fix it, thus preparing a tissue specimen. After preparation of tissue specimen slides. H & E staining was performed, and liver tissue injury as well as inflammatory cell infiltration in liver tissue were confirmed by microscopy. […]

## COc1ccc(-c2ccc(C(=O)NC(C)C)s2)cc1OC [Example 1, 5-(3,4-dimethoxyphenyl)-N-isopropylthiophene-2-carboxamide]
[1]
  liver injury, H & E staining: liver injury was clearly recovered
[2]
  increase in LC3-II (autophagy induction), Western immunoblotting: significant increase in autophagy induction
[3]
  liver fibrosis, Masson's Trichrome staining: fibrosis was alleviated
[3]; CCl4 fibrosis model, Masson's Trichrome staining
  collagen deposition, Example 1 compared with Example 5: collagen deposition was less
[4]
  collagen deposition, quantitative experiment of hydroxyproline in liver tissue: the smaller the collagen deposition
[5]
  phosphorylation of mTOR at serine 2448 position: significantly inhibited

## CC(C)NC(=O)c1ccc(-c2ccc3c(c2)OCO3)s1 [Example 2, 5-(benzo[d][1,3]dioxol-5-yl)-N-isopropylthiophene-2-carboxamide]
[1]
  liver injury, H & E staining: recovery effect of liver injury was relatively small
[6]
  liver fibrosis (collagen deposition), Masson's Trichrome staining: fibrosis was clearly alleviated

## CC(C)CNC(=O)c1ccc(-c2ccc3c(c2)OCO3)s1 [Example 5, 5-(benzo[d][1,3]dioxol-5-yl)-N-isobutylthiophene-2-carboxamide]
[1]
  liver injury, H & E staining: liver injury was clearly recovered
[2]
  increase in LC3-II (autophagy induction), Western immunoblotting: significant increase in autophagy induction
[3]
  liver fibrosis, Masson's Trichrome staining: fibrosis was alleviated
[6]
  liver fibrosis (collagen deposition), Masson's Trichrome staining: fibrosis was clearly alleviated

## COc1ccc(-c2ccc(C(=O)Nc3ccccc3)s2)cc1OC [Example 7, 5-(3,4-dimethoxyphenyl)-N-phenylthiophene-2-carboxamide]
[1]
  liver injury, H & E staining: recovery effect of liver injury was relatively small
